In experiment [1] the target is T1, progestin receptor from rabbit uterus (Oryctolagus cuniculus, UniProt P06186).
T1 construct: Cytosolic progestin receptor were obtained by mixing rabbit uterine tissue with a Tris buffer; from tissue; host or cells: rabbit uterus cytosol
In words: Progestin receptor binding (3H-R5020 displacement). To be noted: rabbit uterine cytosol, 4° C., 18 h, read-out: IC50: Binding affinity for the progestin receptor from rabbit uterus. Put shortly: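 Displacement of the radioligand 3H-R5020 was measured in cytosol from homogenized rabbit uterus (pH 7.4 Tris/EDTA/DTT/molybdate buffer), with compounds at 5% final DMSO and about 18 h at 4 °C. Charcoal removed free ligand, scintillation counting quantified bound ligand, and IC50 was the concentration displacing half.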

The subject of experiment [2] is mouse (MC3T3-E1) and human (TE-85) osteoblast-line cells. Format: cell-based. Put shortly:
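Proliferation was read as ^3H-thymidine (0.4 μCi) uptake during a 4 h pulse, which started 20 h after compound addition. Before dosing, cells sat 24 h in 0.1% FBS. Values are % times control (100%).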

Read-outs that look alike come from different tables or passages of the source.

T1 sequence (P06186 whole entry): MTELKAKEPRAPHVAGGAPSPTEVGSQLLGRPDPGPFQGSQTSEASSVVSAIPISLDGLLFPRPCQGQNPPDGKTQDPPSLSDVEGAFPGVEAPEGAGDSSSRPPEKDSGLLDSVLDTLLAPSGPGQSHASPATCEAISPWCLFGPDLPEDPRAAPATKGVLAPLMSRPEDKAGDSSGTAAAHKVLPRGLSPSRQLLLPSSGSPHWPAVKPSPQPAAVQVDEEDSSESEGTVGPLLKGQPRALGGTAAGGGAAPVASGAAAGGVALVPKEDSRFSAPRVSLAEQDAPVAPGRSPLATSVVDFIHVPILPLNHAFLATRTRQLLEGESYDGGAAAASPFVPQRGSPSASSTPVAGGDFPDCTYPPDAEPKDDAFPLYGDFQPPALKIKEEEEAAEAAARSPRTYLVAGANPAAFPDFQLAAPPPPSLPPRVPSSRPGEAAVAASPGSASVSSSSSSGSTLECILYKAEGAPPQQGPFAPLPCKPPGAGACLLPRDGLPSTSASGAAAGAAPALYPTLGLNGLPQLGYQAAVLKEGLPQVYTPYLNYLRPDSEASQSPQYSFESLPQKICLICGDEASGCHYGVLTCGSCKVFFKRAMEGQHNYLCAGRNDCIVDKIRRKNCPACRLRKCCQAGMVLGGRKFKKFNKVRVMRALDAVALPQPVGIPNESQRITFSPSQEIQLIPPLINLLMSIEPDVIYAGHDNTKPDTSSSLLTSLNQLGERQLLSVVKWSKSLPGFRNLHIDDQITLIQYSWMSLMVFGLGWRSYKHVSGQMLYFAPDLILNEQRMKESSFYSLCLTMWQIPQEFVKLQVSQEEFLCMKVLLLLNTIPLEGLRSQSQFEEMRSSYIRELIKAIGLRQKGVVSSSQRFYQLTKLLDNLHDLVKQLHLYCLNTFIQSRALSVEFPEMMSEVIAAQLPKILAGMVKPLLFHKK

One may read the IC50 as the concentration that gives 50% inhibition. In the case of `O=C(c1ccc(Cl)c(Cl)c1)N1CCCC(c2ccc(Cl)c(Cl)c2)=N1` [Compound 216], the IC50 in experiment [1] is 103 nM. For the same compound, the “Osteoblast Cell Proliferation, 3H-thymidine incorporation vs control (100%)” value (“Osteoblast Cell Proliferation … (100%)” for short) came out at 105% in experiment [2] (10^-6); 108% in experiment [2] (10^-7); 105% in experiment [2] (10^-8); 96% in experiment [2] (10^-9); 100% in experiment [2] (10^-10).

Turning to `O=S(=O)(/C=C/c1cccc(Cl)c1)N1CCCC(c2ccc(Cl)c(Cl)c2)=N1` [Compound 172], the concentration for half-maximal inhibition (IC50) in experiment [1] was found to be 32 nM. The “Osteoblast Cell Proliferation … (100%)” value in experiment [2] (10^-6) is reported as 134%; in experiment [2] (10^-7), 108%; in experiment [2] (10^-8) it was 103%; in experiment [2] (10^-9), 106%; in experiment [2] (10^-10) it was 113%.

On to `COc1ccc(C(=O)N2CCCC(c3ccc(OC)cc3)=N2)cc1` [Compound 182], for which the IC50 in experiment [1] worked out at 100000 nM. Further, the “Osteoblast Cell Proliferation … (100%)” value in experiment [2] (10^-6) came to 95%; in experiment [2] (10^-7) it was 108%; in experiment [2] (10^-8), 118%; in experiment [2] (10^-9), 139%; in experiment [2] (10^-10) it was 115%.

For the compound `CC(=O)Nc1ccc(S(=O)(=O)N2CCCC(c3ccc(Cl)cc3)=N2)cc1` [Compound 154], the IC50 in experiment [1] worked out at 819 nM. The “Osteoblast Cell Proliferation … (100%)” value is reported as 97% in experiment [2] (10^-6); 111% in experiment [2] (10^-7); 107% in experiment [2] (10^-8); 124% in experiment [2] (10^-9); 115% in experiment [2] (10^-10).

Consider `O=S(=O)(c1ccc(F)cc1F)N1CCCC(c2ccc(Cl)cc2)=N1` [Compound 32], for which the IC50 in experiment [1] worked out at 45 nM. In addition, the “Osteoblast Cell Proliferation … (100%)” value in experiment [2] (10^-6) amounted to 89%; in experiment [2] (10^-7) it was 103%; in experiment [2] (10^-8), 105%; in experiment [2] (10^-9), 111%; in experiment [2] (10^-10), 118%.

In the case of `O=S(=O)(c1cc(Cl)ccc1Cl)N1CCCC(c2ccc3c(c2)CCCC3)=N1` [Compound 89], the concentration for half-maximal inhibition (IC50) in experiment [1] was found to be 21.6 nM. For the same compound, the “Osteoblast Cell Proliferation … (100%)” value was 115% in experiment [2] (10^-6); 97% in experiment [2] (10^-7); 113% in experiment [2] (10^-8); 106% in experiment [2] (10^-9); 98% in experiment [2] (10^-10).

Take `O=S(=O)(c1ccc(Cl)cc1)N1CCCC(c2ccc3c(c2)CCCC3)=N1` [Compound 88]: the IC50 in experiment [1] turned out to be 10.2 nM. For the same compound, the “Osteoblast Cell Proliferation … (100%)” value was 97% in experiment [2] (10^-6); 109% in experiment [2] (10^-7); 89% in experiment [2] (10^-8); 74% in experiment [2] (10^-9); 62% in experiment [2] (10^-10).

As to `COc1ccc(C2=NN(C(=O)c3ccc(Cl)c(Cl)c3)CCC2)cc1` [Compound 189], the concentration for half-maximal inhibition (IC50) in experiment [1] stood at 100000 nM. The “Osteoblast Cell Proliferation … (100%)” value in experiment [2] (10^-6) amounted to 89%; in experiment [2] (10^-7), 112%; in experiment [2] (10^-8), 98%; in experiment [2] (10^-9), 122%; in experiment [2] (10^-10), 128%.

With `CCCCc1ccc(C2=NN(S(=O)(=O)c3ccc(I)cc3)CCC2)cc1` [Compound 71], the half-inhibitory concentration (IC50) in experiment [1] stood at 10000 nM. Further, the “Osteoblast Cell Proliferation … (100%)” value in experiment [2] (10^-6) amounted to 110%; in experiment [2] (10^-7), 114%; in experiment [2] (10^-8), 99%; in experiment [2] (10^-9), 103%; in experiment [2] (10^-10), 98%.

Regarding `Cc1ccc(S(=O)(=O)N2N=C(c3ccccc3)CC3Cc4ccccc4C32)cc1` (stereo not drawn) [Compound 158, 1,4,4a,9a,-Tetrahydro-4-(4-methylbenzenesulfonyl)-2-phenyl-3,4-diazafluorene Hemihydrate], in experiment [1], the IC50 turned out to be 3000 nM. Moreover, the “Osteoblast Cell Proliferation … (100%)” value in experiment [2] (10^-6) was 105%; in experiment [2] (10^-7) it was 102%; in experiment [2] (10^-8), 122%; in experiment [2] (10^-9) it was 114%; in experiment [2] (10^-10), 119%.

Regarding `COc1ccc(C2=NN(S(=O)(=O)c3ccc(C)cc3)CCC2)cc1` [Compound 3], the concentration for half-maximal inhibition (IC50) in experiment [1] came to 10000 nM. For the same compound, the “Osteoblast Cell Proliferation … (100%)” value stood at 92% in experiment [2] (10^-6); 110% in experiment [2] (10^-7); 115% in experiment [2] (10^-8); 138% in experiment [2] (10^-9); 118% in experiment [2] (10^-10).

As to `Cc1ccc(S(=O)(=O)N2CCCC(c3ccc(F)cc3)=N2)cc1` [Compound 9], the 50% inhibitory concentration (IC50) in experiment [1] is 362 nM. Besides, the “Osteoblast Cell Proliferation … (100%)” value was 65% in experiment [2] (10^-6); 94% in experiment [2] (10^-7); 128% in experiment [2] (10^-8); 102% in experiment [2] (10^-9); 119% in experiment [2] (10^-10).

`O=[N+]([O-])c1ccc(S(=O)(=O)N2CCCC(c3ccc(Cl)cc3)=N2)cc1` [Compound 4]: in experiment [1], the half-maximal inhibitory concentration (IC50) worked out at 201 nM. For the same compound, the “Osteoblast Cell Proliferation … (100%)” value in experiment [2] (10^-6) was 108%; in experiment [2] (10^-7), 111%; in experiment [2] (10^-8), 155%; in experiment [2] (10^-9) it was 153%; in experiment [2] (10^-10), 158%.

For `COc1ccc(C(=O)N2CCCC(c3ccccc3)=N2)cc1` [Compound 183], the IC50 in experiment [1] was 100000 nM. For the same compound, the “Osteoblast Cell Proliferation … (100%)” value came out at 88% in experiment [2] (10^-6); 133% in experiment [2] (10^-7); 131% in experiment [2] (10^-8); 136% in experiment [2] (10^-9); 135% in experiment [2] (10^-10).

`O=C(c1ccc([N+](=O)[O-])cc1)N1CCCC(c2ccc(Cl)c(Cl)c2)=N1` [Compound 217]: in experiment [1], the IC50 is 102 nM. Further, the “Osteoblast Cell Proliferation … (100%)” value in experiment [2] (10^-6) worked out at 86%; in experiment [2] (10^-7), 87%; in experiment [2] (10^-8), 91%; in experiment [2] (10^-9), 72%; in experiment [2] (10^-10), 52%.

As for `COc1ccc(C(=O)N2CCCC(c3ccc(Cl)cc3)=N2)cc1` [Compound 194], the IC50 in experiment [1] was determined as 100000 nM. Moreover, the “Osteoblast Cell Proliferation … (100%)” value is given as 93% in experiment [2] (10^-6); 130% in experiment [2] (10^-7); 136% in experiment [2] (10^-8); 138% in experiment [2] (10^-9); 144% in experiment [2] (10^-10).

For the compound `O=[N+]([O-])c1ccc(S(=O)(=O)N2CCCC(c3ccc(Cl)c(Cl)c3)=N2)cc1` [Compound 38], in experiment [1], the half-inhibitory concentration (IC50) was determined as 5.29 nM. Also, the “Osteoblast Cell Proliferation … (100%)” value is 76% in experiment [2] (10^-6); 73% in experiment [2] (10^-7); 54% in experiment [2] (10^-8); 49% in experiment [2] (10^-9); 37% in experiment [2] (10^-10).

With `COP(=O)(c1ccccc1)N1CCCC(c2ccccc2)=N1` (stereo not drawn) [Compound 252], in experiment [1], the half-inhibitory concentration (IC50) came out at 10000 nM. Besides, the “Osteoblast Cell Proliferation … (100%)” value was 75% in experiment [2] (10^-6); 86% in experiment [2] (10^-7); 79% in experiment [2] (10^-8); 97% in experiment [2] (10^-9); 86% in experiment [2] (10^-10).

On to `O=S(=O)(c1cc(C(F)(F)F)cc(C(F)(F)F)c1)N1CCCC(c2ccc(Cl)cc2)=N1` [Compound 33], for which the concentration for half-maximal inhibition (IC50) in experiment [1] turned out to be 9 nM. The “Osteoblast Cell Proliferation … (100%)” value in experiment [2] (10^-6) was 96%; in experiment [2] (10^-7) it was 107%; in experiment [2] (10^-8), 117%; in experiment [2] (10^-9), 127%; in experiment [2] (10^-10), 152%.
